Series [1] relates to apple scab pathogen Venturia inaequalis. The experiment in a line: Venturia test (apple)/protective. The format is in vivo. The following applies: apple plants, protective; application rate 100 g/ha; evaluation 10 days after inoculation. On the procedure:
(§1) To produce a suitable preparation of active compound, 1 part by weight of active compound is mixed with the stated amounts of solvents and emulsifier, and the concentrate is diluted with water to the desired concentration.
To test for protective activity, young plants are sprayed with the preparation of active compound at the stated application rate. After the spray coating has dried on, the plants are inoculated with an aqueous conidia suspension of the apple scab pathogen Venturia inaequalis and then remain in an incubation cabin at about 20° C. and 100% relative atmospheric humidity for 1 day.
The plants are then placed in a greenhouse at about 21° C. and a relative atmospheric humidity of about 90%.
(§2) Evaluation is carried out 10 days after the inoculation. 0% means an efficacy which corresponds to that of the control, whereas an efficacy of 100% means that no infection is observed.

The nature of series [2]: logP determination by HPLC on reverse-phase column (C 18), acidic range pH 2.3. The format is physicochemical. The settings on record: reverse-phase HPLC column (C 18), HPLC, C 18 reverse-phase, 43° C. On the procedure: The logP values given in Table 1 were determined with EEC Directive 79/831 Annex V.A8 by HPLC (High Performance Liquid Chromatography) on a reverse-phase column (C 18). Temperature: 43° C. Mobile phases for the determination in the acidic range (pH 2.3): 0.1% aqueous phosphoric acid, acetonitrile; linear gradient from 10% acetonitrile to 90% acetonitrile. Calibration was carried out using unbranched alkan-2-ones (having 3 to 16 carbon atoms) with known logP values (determination of the logP values by the retention times using linear interpolation between two successive alkanones).

The test system of a further series is Alternaria solani. The experiment in a line: Alternaria test (tomato)/protective. The format is in vivo. The settings on record: tomato plants, protective; application rate 750 g/ha; evaluation 7 days after inoculation. As for the experimental part:
(§3) To produce a suitable preparation of active compound, 1 part by weight of active compound is mixed with the stated amounts of solvent and emulsifier, and the concentrate is diluted with water to the desired concentration.
To test for protective activity, young tomato plants are sprayed with the preparation of active compound at the stated application rate. 1 day after the treatment, the plants are inoculated with a spore suspension of Alternaria solani and then remain at 100% relative atmospheric humidity and 20° C. for 24 hours. The plants then remain at 96% relative atmospheric humidity and a temperature of 20° C.
Evaluation is carried out 7 days after the inoculation. 0% means an efficacy which corresponds to that of the control, whereas an efficacy of 100% means that no infection is observed.

The subject of the next series is Botrytis cinerea. The series is described as follows: Botrytis test (bean)/protective. Format: in vivo. The settings on record: 48 h, bean plants, protective, application rate 500 g/ha, evaluation 2 days after inoculation, read-out: Efficacy in %. As for the experimental part:
as §1
To test for protective activity, young plants are sprayed with the preparation of active compound at the stated application rate. After the spray coating has dried on, 2 small pieces of agar colonized by Botrytis cinerea are placed onto each leaf. The inoculated plants are placed in a dark chamber at about 20° C. and 100% relative atmospheric humidity.
2 days after the inoculation, the size of the infected areas on the leaves is evaluated. 0% means an efficacy which corresponds to that of the control, whereas an efficacy of 100% means that no infection is observed.

The next series has as its system Puccinia recondita. The experiment in a line: Puccinia test (wheat)/protective. Format: in vivo. The following applies: 240 h, wheat plants, protective, application rate 500 g/ha, evaluation 10 days after inoculation, read-out: Efficacy in %. On the procedure: as §3
To test for protective activity, young plants are inoculated with a spore suspension of Puccinia recondita in a 0.1% strength aqueous agar solution. After the spray coating has dried on, the plants are sprayed with the preparation of active compound at the stated application rate. The plants remain in an incubation cabin at 20° C. and 100% relative atmospheric humidity for 24 hours.
The plants are then placed in a greenhouse at a temperature of about 20° C. and a relative atmospheric humidity of 80% to promote the development of rust pustules.
as §2

In series [3] the test system is eggs of the diamond back moth (Plutella xylostella). The series is described as follows: Plutella test. The format is in vivo. The settings on record: active compound concentration 1000 ppm, on synthetic feed. On the procedure: To produce a suitable preparation of active compound, 1 part by weight of active compound is mixed with the stated amount of solvent, and the concentrate is diluted with methanol to the desired concentrations.
A stated amount of the preparation of active compound of the desired concentration is pipetted onto a standardized amount of synthetic feed. After the methanol has evaporated, about 200-300 eggs of the diamond back moth (Plutella xylostella) are placed onto the feed.
After the desired period of time, the kill of the eggs in % is determined. 100% means that all animals have been killed; 0% means that none of the animals have been killed.

Turning to `Cn1cc(C(=O)Nc2ccccc2-c2ccc(/C=N\OCC3CC3)cc2)c(C(F)(F)F)n1` [Compound 4], in series [1], the Efficacy in % came out at 91%. Moreover, in series [2], the chromatographic logP came out at 3.77.

Turning to `C=CCO/N=C\c1ccc(-c2ccccc2NC(=O)c2cccnc2Cl)cc1` [Compound 12], the Efficacy in % in the series with Alternaria solani is on record as 100%. Further, the chromatographic logP in series [2] was 3.3.

Regarding `C=CCO/N=C\c1ccc(-c2ccccc2NC(=O)c2c(C)nn(C)c2F)cc1` [Compound 6], the pest or weed control at 500 g/ha in the series on Botrytis cinerea stood at 98%; with Puccinia recondita, 100%. The Efficacy in % in series [1] is 97%; in the series on Alternaria solani it was 100%. This molecule also yielded a chromatographic logP in series [2] of 3.47.

In turn, `C=CCO/N=C\c1ccc(-c2ccccc2NC(=O)c2cn(C)nc2C(F)(F)F)cc1` [Compound 11] gave an Efficacy in % with Alternaria solani of 100%. The same molecule had a chromatographic logP in series [2] of 3.53.

`C=CCO/N=C\c1ccc(-c2ccccc2NC(=O)c2cn(C)nc2C(F)F)cc1` [Compound 10]: the pest or weed control at 500 g/ha with Botrytis cinerea came to 95%; in the series with Puccinia recondita, 100%. The Efficacy in % in series [1] stood at 100%. Also, the chromatographic logP in series [2] worked out at 3.32.

On to `Cc1nc(C(F)F)c(C(=O)Nc2ccccc2-c2ccc(/C=N\OCC3CC3)cc2)s1` [Compound 8], for which the pest or weed control at 500 g/ha with Botrytis cinerea was 85%. This molecule also gave an Efficacy in % in series [1] of 100%. This molecule had a chromatographic logP in series [2] of 3.87.

On to `Cn1cc(C(=O)Nc2ccccc2-c2ccc(/C=N\OCC3CC3)cc2)c(C(F)F)n1` [Compound 7], for which the pest or weed control at 500 g/ha with Botrytis cinerea is 96%; in the series with Puccinia recondita, 100%. This molecule had an Efficacy in % in series [1] of 100%. In series [2], this molecule came in with a chromatographic logP of 3.53.

Turning to `Cc1nc(C(F)(F)F)c(C(=O)Nc2ccccc2-c2ccc(/C=N\OCC3CC3)cc2)s1` [Compound 2], the pest or weed control at 500 g/ha with Botrytis cinerea was 98%. The molecule also showed an Efficacy in % with Alternaria solani of 90%. Also, the chromatographic logP in series [2] came out at 4.16.

Take `C=CCO/N=C(/C)c1ccc(-c2ccccc2NC(=O)c2sc(C)nc2C(F)F)cc1` [Compound 15]: the “Kill rate in % after 7 d” value in series [3] is 95%. Further, the pest or weed control at 500 g/ha in the series with Puccinia recondita worked out at 100%. The molecule further displayed a chromatographic logP in series [2] of 3.92.

`C=CCO/N=C/c1ccc(-c2ccccc2NC(=O)c2sc(C)nc2C(F)F)cc1` [Compound 9, N-[4′-(allyloxyimino-methyl)-biphenyl-2-yl]-4-difluoromethyl-2-methylthiazole-5-carboxamide]: the pest or weed control at 500 g/ha in the series with Botrytis cinerea was found to be 95%. The Efficacy in % in series [1] came to 100%. Also, the chromatographic logP in series [2] turned out to be 3.65.

`C=CCO/N=C\c1ccc(-c2ccccc2NC(=O)c2sc(C)nc2C(F)(F)F)cc1` [Compound 5]: in the series on Botrytis cinerea, the pest or weed control at 500 g/ha stood at 83%. Further, the Efficacy in % (in series [1]; with Alternaria solani) was 100% throughout. Also, in series [2], the chromatographic logP turned out to be 3.91.

As for `CC1=C(C(=O)Nc2ccccc2-c2ccc(/C(C)=N\OCC3CC3)cc2)SCCO1` [Compound 22], in series [3], the “Kill rate in % after 7 d” value was 95%. The chromatographic logP in series [2] was found to be 4.69.

The term chromatographic logP denotes lipophilicity estimated from chromatographic retention. Low readings indicate a more hydrophilic compound, high ones a more lipophilic compound.

The values are drawn from patent US7728019B2, “Biphenylcarboxamides” (priority 2002, dated 2010).
